Assay results published in patent US7579349B2, “4-(pyrazol-3-ylamino) pyrimidine derivatives for use in the treatment of cancer” (AstraZeneca AB, priority 2003, dated 2009).

Test system: murine fibroblasts (NIH3T3) over-expressing human IGF-1 receptor
Assay: Inhibition of IGF-stimulated cell proliferation (BrdU incorporation), Test (c)
Assay type: cell-based
Conditions: inhibition of IGF-stimulated proliferation in NIH3T3 over-expressing human IGF-1 receptor
Description: c) Inhibition of IGF-stimulated Cell Proliferation
The construction of murine fibroblasts (NIH3T3) over-expressing human IGF-1 receptor has been described by Lammers et al (EMBO J, 8, 1369-1375, 1989). These cells show a proliferative response to IGF-I which can be measured by BrdU incorporation into newly synthesised DNA. Compound potency was determined as causing inhibition of the IGF-stimulated proliferation in the following assay:
Compounds are initially dissolved in DMSO to 10 mM, followed by dilutions in DMEM+1% FCS+glutamine to give a range from […] in 1-0.00045% DMSO final concentration in assay well.
Exponentially growing NIH3T3/IGFR cells were harvested and seeded in complete growth medium into a flat-bottomed 96 well tissue culture grade plate (Costar 3525) at 1.2×10^4 cells per well in a volume of 100 μl.
Growth medium was carefully removed from each well using a multi-channel pipette. Wells were carefully rinsed three times with 200 μl with HBSS. 100 μl of starvation medium was added to each well and the plate was re-incubated for 24 hours.
50 μl of a 4× concentrate of test compound was added to appropriate wells. Cells were incubated for 30 minutes with compound alone before the addition of IGF. For cells treated with IGF, an appropriate volume (i.e. 25 μl) of starvation medium was added to make a final volume per well up to 200 μl followed by 25 μl of IGF-1 at 160 ng/ml (to give a final concentration of 20 ng/ml). […] The plate was re-incubated for 20 hours.
The incorporation of BrdU in the cells (after a 4 h incorporation period) was assessed using the BrdU Cell Proliferation Elisa according to the manufacturer's protocol.

Structure (SMILES)	IC50	IC50 (Mus musculus)
Clc1cnc(N2CCCC2c2cc(C3CC3)no2)nc1Nc1cc(C2CC2)[nH]n1 (stereo not shown) [Example 5, 5-Chloro-2-[2-(3-cyclopropylisoxazol-5-yl]pyrrolidin-1-yl]-4-(5-cvlopropyl-1H-pyrazol-3-ylamino)phyrimidine]	0.13 µM	
Cc1cc(Nc2ccnc(N3CCCC3c3cc(-c4ccccn4)no3)n2)n[nH]1 (stereo not shown) [Example 23, 4-(5-Methyl-1H-pyrazol-3-ylamino)-2-{2-[3-(pyrid-2-yl)isoxazol-5-yl]pyrrolidin-1-yl}pyrimidine]		0.11 µM
Cc1cc(Nc2cc(C(F)(F)F)nc(N3CCCC3c3cc(-c4ccccn4)no3)n2)n[nH]1 (stereo not shown) [Example 35, 4-(5-Methyl-1H-pyrazol-3-ylamino)-2-{2-[3-(pyrid-2-yl)isoxazol-5-yl]pyrrolidin-1-yl}-6-trifluoromethylpyrimidine]		0.56 µM
Cc1cc(Nc2nc(N3CCC[C@H]3c3cc(-c4nccs4)no3)ncc2Cl)n[nH]1 [Example 38, S-5-Chloro-2-{2-[3-(thiazol-2-yl)isoxazol-5-yl]pyrrolidin-1-yl}-4-(5-methyl-1H-pyrazol-3-ylamino)pyrimidine]	0.054 µM	
